Measurements published in ChEMBL document CHEMBL1139552, “Naphthamidine urokinase plasminogen activator inhibitors with improved pharmacokinetic properties” (Bioorg Med Chem Lett, 2005).

Experiments:
[1] = Binding affinity value against thrombin
[2] = target: Urokinase-type plasminogen activator (Homo sapiens, UniProt P00749)
Description: Binding affinity value against urokinase plasminogen activator

[3] = Volume distribution value in sprague dawley rat was determined at a dosage of 3 mg/kg; type: ADME, organism-based; design: dose 3 mg/kg; settings: in vivo
[4] = target: Trypsin (Sus scrofa, UniProt P00761); experiment: Binding affinity value against trypsin
Chain of Trypsin (P00761 whole entry): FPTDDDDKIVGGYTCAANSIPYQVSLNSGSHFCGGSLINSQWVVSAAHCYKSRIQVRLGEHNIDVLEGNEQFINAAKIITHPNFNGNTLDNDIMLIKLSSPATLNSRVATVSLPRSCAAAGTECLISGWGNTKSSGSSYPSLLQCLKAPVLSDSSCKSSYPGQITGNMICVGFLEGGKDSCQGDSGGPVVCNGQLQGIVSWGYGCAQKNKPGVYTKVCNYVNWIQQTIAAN

[5] = Terminal half life value in sprague dawley rat was determined at a dosage of 3 mg/kg; type: ADME, organism-based; design: dose 3 mg/kg; settings: in vivo
[6] = Area under the curve time curve value in sprague dawley rat was determined at a dosage of 3 mg/kg; type: ADME, organism-based; design: dose 3 mg/kg; settings: in vivo
[7] = Bioavailability in rat (Sprague-Dawley) (dose 10 mg/kg); type: ADME, organism-based; settings: in vivo
[8] = in vivo; settings: Sprague-Dawley, rat, 3 mg/kg
Description: (§1) Clearance value in sprague dawley rat was determined at a dosage of 3 mg/kg

[9] = rat, in vivo, 3 mg/kg
Description: as §1

[10] = target: Plasminogen (Homo sapiens, UniProt P00747); experiment: Binding affinity value against plasmin
Chain of Plasminogen (P00747 97-580 limits assumed): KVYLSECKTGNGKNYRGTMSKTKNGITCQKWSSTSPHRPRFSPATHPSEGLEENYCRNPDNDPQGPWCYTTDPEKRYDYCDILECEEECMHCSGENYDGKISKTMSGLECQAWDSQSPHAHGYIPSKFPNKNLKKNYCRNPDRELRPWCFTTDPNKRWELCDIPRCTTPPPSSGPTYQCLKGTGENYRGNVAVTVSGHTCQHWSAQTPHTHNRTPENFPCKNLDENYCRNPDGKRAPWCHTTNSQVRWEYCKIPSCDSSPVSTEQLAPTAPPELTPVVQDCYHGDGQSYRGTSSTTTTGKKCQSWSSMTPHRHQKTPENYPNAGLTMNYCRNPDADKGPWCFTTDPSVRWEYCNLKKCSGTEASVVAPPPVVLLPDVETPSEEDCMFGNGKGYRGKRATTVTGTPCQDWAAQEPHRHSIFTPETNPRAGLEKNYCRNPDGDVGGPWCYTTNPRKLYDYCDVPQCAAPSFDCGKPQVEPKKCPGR
Chain of Plasminogen (P00747 581-810 limits assumed): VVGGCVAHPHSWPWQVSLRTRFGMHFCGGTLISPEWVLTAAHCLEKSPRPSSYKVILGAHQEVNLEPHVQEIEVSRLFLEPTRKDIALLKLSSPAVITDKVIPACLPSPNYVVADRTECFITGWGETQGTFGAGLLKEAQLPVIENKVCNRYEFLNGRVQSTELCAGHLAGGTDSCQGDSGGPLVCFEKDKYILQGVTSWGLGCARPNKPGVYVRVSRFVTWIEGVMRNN

[11] = target: Kallikrein-1 (Homo sapiens, UniProt P06870)
Chain of Kallikrein-1 (P06870 whole entry): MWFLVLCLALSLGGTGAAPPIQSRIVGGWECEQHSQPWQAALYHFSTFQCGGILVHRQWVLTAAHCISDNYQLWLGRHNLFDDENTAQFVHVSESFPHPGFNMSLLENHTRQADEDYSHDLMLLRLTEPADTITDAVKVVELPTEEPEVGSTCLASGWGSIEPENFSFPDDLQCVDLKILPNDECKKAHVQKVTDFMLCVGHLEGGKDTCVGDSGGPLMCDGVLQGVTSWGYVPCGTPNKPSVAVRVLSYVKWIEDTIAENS
Description: Binding affinity value against kallikrein

[12] = target: Tissue-type plasminogen activator (Homo sapiens, UniProt P00750); experiment: Binding affinity value against Tissue plasminogen activator
Chain of Tissue-type plasminogen activator (P00750 whole entry): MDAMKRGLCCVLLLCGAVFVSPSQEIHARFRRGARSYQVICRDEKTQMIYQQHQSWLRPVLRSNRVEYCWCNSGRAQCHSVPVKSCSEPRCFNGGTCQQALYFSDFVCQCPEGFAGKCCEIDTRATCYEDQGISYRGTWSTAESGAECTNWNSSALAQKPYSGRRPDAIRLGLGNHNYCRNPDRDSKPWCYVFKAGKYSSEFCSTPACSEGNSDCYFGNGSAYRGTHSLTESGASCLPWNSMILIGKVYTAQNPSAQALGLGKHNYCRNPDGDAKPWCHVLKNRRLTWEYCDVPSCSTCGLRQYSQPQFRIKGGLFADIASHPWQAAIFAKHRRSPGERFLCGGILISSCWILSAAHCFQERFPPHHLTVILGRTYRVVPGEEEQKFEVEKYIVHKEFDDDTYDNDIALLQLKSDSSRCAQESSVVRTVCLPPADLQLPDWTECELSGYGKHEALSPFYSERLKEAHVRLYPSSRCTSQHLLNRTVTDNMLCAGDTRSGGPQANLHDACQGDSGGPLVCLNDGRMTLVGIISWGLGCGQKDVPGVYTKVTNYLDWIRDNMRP

[13] = Bioavailability in sprague dawley rat was determined at a dosage of 3 mg/kg; NT means not tested; type: ADME, organism-based; settings: in vivo
[14] = Volume distribution value in sprague dawley rat was determined at a intravenous dosage of 10 mg/kg; type: ADME, organism-based; design: dose 10 mg/kg, route intravenous; settings: in vivo
[15] = in vivo; settings: Sprague-Dawley, rat, iv, 10 mg/kg
Description: Clearance value in sprague dawley rat was determined at a intravenous dosage of 10 mg/kg

[16] = Area under the curve time curve value in sprague dawley rat was determined at a intravenous dosage of 10 mg/kg; type: ADME, organism-based; design: dose 10 mg/kg, route intravenous; settings: in vivo
[17] = Terminal half life value in sprague dawley rat was determined at a intravenous dosage of 10 mg/kg; type: ADME, organism-based; design: dose 10 mg/kg, route intravenous; settings: in vivo

Row | SMILES | Ki [1] | Ki [2] | Vd [3] | Ki [4] | half-life [5] | AUC ([6]; Sprague-Dawley, read-out: AUC) | bioavailability [7] | clearance [8] | CI [9] | AUC [6] | Ki [10] | Ki [11] | Ki [12] | CI ([9]; Sprague-Dawley) | AUC [13] | Vd [14] | clearance [15] | AUC [16] | half-life [17]
1 | N=C(N)c1ccc2cc(C(=O)Nc3ccccc3)cc(Nc3ncccn3)c2c1 | 170 nM | 200 nM | 37.1 L/kg | 40 nM | 0.6 h | 0.14 µM·h | 0% | 715 mL/min/kg |  |  |  |  |  |  |  |  |  |  | 
2 | N=C(N)c1ccc2cc(C(=O)Nc3ccccc3)ccc2c1 | 5640 nM |  | 8.5 L/kg | 325 nM | 2.1 h |  | 3% |  | 46.7 mL/min/kg | 8.2 µM·h |  |  |  |  |  |  |  |  | 
3 | CC(C)C1=NCCc2ccc(C3CC3c3ccc4cc(C(=N)N)ccc4c3)cc21 (stereo not drawn) | 2140 nM |  | 18.6 L/kg | 53 nM | 1.33 h | 0.51 µM·h | 26% | 161 mL/min/kg |  |  | 1050 nM | 525 nM | 4740 nM |  |  |  |  |  | 
4 | N=C(N)c1ccc2cc(CCc3ccccc3)cc(Nc3ncccn3)c2c1 | 191 nM |  | 13.6 L/kg | 167 nM | 2 h |  | 0% |  |  | 4.2 µM·h | 570 nM | 156 nM | 5790 nM | 78.3 mL/min/kg |  |  |  |  | 
5 | N=C(N)c1ccc2cc(C3CC3c3ccccc3)cc(Br)c2c1 (stereo not drawn) | 503 nM | 622 nM | 14.3 L/kg | 334 nM | 4.71 h | 2.72 µM·h | 17% | 35 mL/min/kg |  |  | 239 nM | 379 nM | 30800 nM |  |  |  |  |  | 
6 | CN1CCc2ccc(C3CC3c3ccc4cc(C(=N)N)ccc4c3)cc2C1C(C)(C)C (stereo not drawn) |  | 548 nM |  |  |  |  |  |  |  |  |  |  |  |  |  |  |  |  | 
7 | N=C(N)c1ccc2cc(C(=O)Nc3ccccc3)cc(Br)c2c1 | 2660 nM | 281 nM | 18.7 L/kg | 64 nM | 1.05 h |  | 0% | 205 mL/min/kg |  |  | 1020 nM | 992 nM | 5590 nM |  | 0.6 µM·h |  |  |  | 
8 | N=C(N)c1ccc2cc(C3CC3c3ccc4c(c3)C(C3CCCCC3)=NCC4)ccc2c1 (stereo not drawn) | 1140 nM |  | 4.5 L/kg | 428 nM | 0.27 h | 0.57 µM·h | 22% | 192 mL/min/kg |  |  | 594 nM | 206 nM | 4020 nM |  |  |  |  |  | 
9 | CC(C)Oc1cccc(C2CC2c2ccc3cc(C(=N)N)ccc3c2)c1 (stereo not drawn) | 1100 nM |  | 19.3 L/kg | 141 nM | 5.91 h | 3.48 µM·h | 23% | 37.7 mL/min/kg |  |  | 2450 nM | 1400 nM | 21900 nM |  |  |  |  |  | 
10 | N=C(N)c1ccc2cc(CCc3ccccc3)cc(Br)c2c1 |  |  | 18 L/kg |  | 3.3 h | 1.75 µM·h | > 32% | 63.3 mL/min/kg |  |  |  |  |  |  |  |  |  |  | 
11 | N=C(N)c1ccc2cc(C3CC3c3ccc4c(c3)C(c3ccccc3)=NCC4)ccc2c1 (stereo not drawn) | 2120 nM |  |  | 165 nM |  |  |  |  |  |  | 955 nM | 336 nM | 7040 nM |  |  |  |  |  | 
12 | N=C(N)c1ccc2cc(CCc3ccccc3)cc(-c3ccoc3)c2c1 |  | 731 nM | 1.53 L/kg |  |  |  | 18% |  |  | 17.6 µM·h |  |  |  | 55.2 mL/min/kg |  |  |  |  | 
13 | CN1CCc2ccc(C3CC3c3ccc4cc(C(=N)N)ccc4c3)cc2C1C1CCCCC1 (stereo not drawn) | 996 nM |  | 18.7 L/kg | 31 nM | 1.53 h | 0.53 µM·h | 27% | 142 mL/min/kg |  |  | 811 nM | 295 nM | 18900 nM |  |  |  |  |  | 
14 | N=C(N)c1ccc2cc(C3CC3c3ccccc3)cc(Nc3ncccn3)c2c1 (stereo not drawn) | 48 nM | 5 nM | 10 L/kg | 54 nM | 0.33 h | 0.23 µM·h | 0% | 352 mL/min/kg |  |  | 243 nM | 54 nM | 5050 nM |  |  |  |  |  | 
15 | CC(C)C1=NCCc2ccc([C@H]3CC3c3ccc4cc(C(=N)N)ccc4c3)cc21 (stereo partly drawn) | 1790 nM |  |  | 30 nM |  |  |  |  |  |  | 1480 nM | 640 nM | 10400 nM |  |  |  |  |  | 
16 | N=C(N)c1ccc2cc(C3CC3c3ccccc3)cc(-c3ccoc3)c2c1 (stereo not drawn) |  |  | 2.4 L/kg |  |  |  | 10% |  |  | 14.5 µM·h |  |  |  | 70 mL/min/kg |  |  |  |  | 
17 | CC(C)C1=NCCc2cc(C3CC3c3ccc4cc(C(=N)N)ccc4c3)ccc21 (stereo not drawn) |  |  |  |  | 0.33 h |  | 0% |  |  |  |  |  |  |  |  | 7.9 L/kg | 273 mL/min/kg | 0.27 µM·h | 
18 | N=C(N)c1ccc2cc(CCc3ccccc3)ccc2c1 |  | 3180 nM | 9.8 L/kg |  | 1 h | 1.14 µM·h | 60% | 113 mL/min/kg |  |  |  |  |  |  |  |  |  |  | 
19 | N=C(N)c1ccc2cc(/C=C/c3ccccc3)ccc2c1 | 5270 nM |  |  | 346 nM |  |  |  |  |  |  |  | 991 nM | 34600 nM |  |  |  |  |  | 
20 | CC(C)C1c2cc(C3CC3c3ccc4cc(C(=N)N)ccc4c3)ccc2CCN1C (stereo not drawn) | 1800 nM |  | 10.3 L/kg | 90 nM | 0.55 h | 0.37 µM·h | 55% | 216 mL/min/kg |  |  | 1300 nM | 576 nM | 6230 nM |  |  |  |  |  | 
21 | N=C(N)c1ccc2cc(C(=O)Nc3ccccc3)cc(-c3ccoc3)c2c1 | 132 nM |  | 21.7 L/kg | 45 nM | 3 h |  | 0% |  | 83 mL/min/kg | 5 µM·h |  |  |  |  |  |  |  |  | 
22 | N=C(N)c1ccc2cc(/C=C/c3ccccc3)cc(-c3ccoc3)c2c1 | 237 nM | 168 nM |  | 96 nM | 0.62 h |  | 0% | 21.7 mL/min/kg |  |  | 134 nM | 83 nM | 4460 nM |  |  | 1.2 L/kg |  | 5.8 µM·h | 
23 | N=C(N)c1ccc2cc(/C=C/c3ccccc3)cc(Br)c2c1 | 920 nM | 820 nM |  | 480 nM |  |  |  |  |  |  | 1350 nM | 770 nM | 13400 nM |  |  |  |  |  | 
24 | N=C(N)c1ccc2cc(/C=C/c3ccccc3)cc(Nc3ncccn3)c2c1 | 395 nM | 10 nM |  | 84 nM |  |  |  |  |  |  | 277 nM | 42 nM | > 50000 nM |  |  |  |  |  | 
25 | CC1c2cc(C3CC3c3ccc4cc(C(=N)N)ccc4c3)ccc2CCN1C (stereo not drawn) |  |  | 2.9 L/kg |  | 0.28 h | 0.69 µM·h | 0% | 121 mL/min/kg |  |  |  |  |  |  |  |  |  |  | 
26 | N=C(N)c1ccc2cc(C3CC3c3ccccc3)ccc2c1 (stereo not drawn) | 1890 nM |  | 23 L/kg | 720 nM |  |  | 30% |  | 36 mL/min/kg | 11.6 µM·h | 3520 nM | 2480 nM | 69100 nM |  |  |  |  |  | 7.4 h
